Laboratory results reported in patent US12070467B2, “Method of treating ciliated tissue using CSA micelles” (Brigham Young University, priority 2018, dated 2024).

Tests used:
[1] = system: P. aeruginosa (ATCC 47085); experiment: Kinetics of bactericidal activity (FIG. 4); type: cell-based, Pseudomonas aeruginosa; conditions: detection limit two logs
Description: (§1) Cultures were incubated at 37° C. At 5, 15, 30, 60, and 120 min, aliquots were removed from each well and added to neutralizing buffer to ensure that no further antibacterial activity occurred. These samples were then serially diluted and plated on TSA or SDA. Cultures were incubated at 37° C. for 24 h or 48 h, and colonies were counted and recorded.
Detection limit was two logs.

C. auris CDC 384 = experiment: Minimum inhibitory concentration (MIC), broth microdilution; type: cell-based, Candida auris; conditions: 37° C., 18-20 h
Description: (§2) Staphylococcus aureus (ATCC 25923) and Pseudomonas aeruginosa (ATCC 47085 (PA01)) were grown from fresh colonies in trypticase soy broth (TSB) and incubated overnight at 37° C. Fungal cultures, Candida albicans (ATCC 90028) and Candida auris (CDC 0382, 0384, 0387, and 0389), were grown overnight in sabouraud dextrose broth (SDB) or Roswell Park Memorial Institute medium (RPMI). Cultures of bacteria and fungi were centrifuged, and pellets were washed three times with phosphate buffered saline (PBS) and further resuspended in fresh PBS. Bacterial cultures were diluted in TSB and fungal cultures were diluted in SDB or RPMI to […] or 10^6 CFU/mL (optical density (OD) readings at 600 nm).
(§3) Minimum inhibitory concentrations (MICs) were measured using the broth microdilution protocol described by the Clinical and Laboratory Standards Institute. […] Aliquots (100 μL) of a prepared inoculum (10^6 CFU/mL for bacteria and […] CFU/mL for fungi) were added, and plates were incubated at 37° C. for 18-20 h. Bacterial or fungal growth was visually observed to determine the MICs. Negative and positive controls were included for each set of MIC measurements. For studies with pluronic, the surfactant was added at 4% and 5% to the initial inocula in each experiment. Measurements were performed in triplicate for all susceptibility tests.

C. auris CDC 387 = experiment: as above; type: cell-based, Candida auris; conditions: 37° C., 18-20 h
Description: as §2, §3

C. auris CDC 382 = experiment: as above; type: cell-based, Candida auris; conditions: 37° C., 18-20 h
Description: as §2, §3

C. auris CDC 389 = experiment: as above; type: cell-based, Candida auris; conditions: 37° C., 18-20 h
Description: as §2, §3

C. auris CDC 387 biofilm = experiment: Minimum biofilm eradication concentration (MBEC); type: cell-based, Candida auris; conditions: 48 h biofilm, 24 h treatment
Description: as §2
(§4) Inocula (10^6 CFU/mL) of bacterial and fungal strains (P. aeruginosa, S. aureus, C. albicans, and C. auris) were incubated at 37° C. for 48 h in 1 mL of TSB or SDB in 96-well plates. Following incubation, the growth medium was gently removed, and wells were washed three times with sterile PBS. […] Wells, including well edges, were scraped thoroughly with a plastic spatula. Well contents were removed in 1 mL of neutralizing broth (Dey-Engley, Sigma-Aldrich) and placed in a sonicating water bath (Fisher Scientific FS60, 42 kHz, 100 W, Pittsburgh, PA, USA) to disrupt biofilms. After 15 min, the resulting samples were serially diluted, and bacterial samples were plated on TSA while fungal samples were plated on SDA. After 24 h or 48 h of incubation at 37° C., colonies were counted and MBECs were determined. The minimum biofilm eradication concentration (MBEC) was defined as the lowest concentration of antibiotic that prevented bacterial regrowth.

C. auris CDC 382 biofilm = experiment: Minimum biofilm eradication concentration (MBEC); type: cell-based, Candida auris; conditions: 48 h biofilm, 24 h treatment
Description: as §2, §4

C. auris CDC 389 biofilm = experiment: Minimum biofilm eradication concentration (MBEC); type: cell-based, Candida auris; conditions: 48 h biofilm, 24 h treatment
Description: as §2, §4

C. auris CDC 384 biofilm = experiment: Minimum biofilm eradication concentration (MBEC); type: cell-based, Candida auris; conditions: 48 h biofilm, 24 h treatment
Description: as §2, §4

P. aeruginosa ATCC 47085 = experiment: Minimum inhibitory concentration (MIC), broth microdilution; type: cell-based, Pseudomonas aeruginosa; conditions: 37° C., 18-20 h
Description: as §2, §3

S. aureus = experiment: Kinetics of bactericidal activity; type: cell-based, Staphylococcus aureus; conditions: CSA-131 100 μg/mL, pluronic 4%, data not shown
Description: as §1
FIG. 4 is a line graph comparing the kinetic antibacterial activity of CSA compositions with micelles compared to a control without CSA. Inocula of just over 10^6 CFU/mL were reduced to the detection limit within 15 min. […] Detection limit was two logs.

[2] = system: P. aeruginosa ATCC 47085 biofilm; experiment: Minimum biofilm eradication concentration (MBEC); type: cell-based, Pseudomonas aeruginosa; conditions: 48 h biofilm, 24 h treatment
Description: as §2
as §4, with “After 15 min, the resulting samples were serially diluted, and bacterial samples were plated on TSA while fungal samples were plated on SDA.” left out, “The minimum biofilm eradication concentration (MBEC) was defined as the lowest concentration of antibiotic that prevented bacterial regrowth.” left out

[3] = system: S. aureus ATCC 25923 biofilm; experiment: Minimum biofilm eradication concentration (MBEC); type: cell-based, Staphylococcus aureus; conditions: 48 h biofilm, 24 h treatment
Description: as §2
as §4, with “After 15 min, the resulting samples were serially diluted, and bacterial samples were plated on TSA while fungal samples were plated on SDA.” left out, “The minimum biofilm eradication concentration (MBEC) was defined as the lowest concentration of antibiotic that prevented bacterial regrowth.” left out

[4] = system: C. albicans (ATCC 90028) and C. auris (CDC 384) in trachea and lung explants; experiment: Ex vivo antifungal efficacy in porcine trachea and lung explants (FIGS. 7A, 7B); type: cell-based, Candida albicans, Candida auris; conditions: 24 h
Description: Using 5 mm^3 explant cubes of porcine trachea and lung, ex vivo antifungal efficacy experiments were conducted. Cubes were dissected using a sterile razor blade form the ventral surface of the left caudal lobe of three sets of porcine lungs. After trimming excess tissues away from the explants to produce uniform of size (5 mm), explants were incubated at 37° C. in DMEM/RPMI inoculated with 10^6 CFU/explant of C. auris (CDC 0384) or C. albicans (ATCC 90028) in a 48-well plate. […] Treated explants were incubated for 24 h at 37° C. After incubation, tissues were suspended in 250 μL of neutralizing broth and vortex on the highest setting for 4 min. Samples were then serially diluted in PBS, plated on 5% sheep blood TSA plates, and incubated at 37° C. for 48 h.
FIGS. 7A and 7B are bar graphs comparing the antifungal activity of CSA compositions with and without micelles on fungi, and against a control without any CSA. White bars shown remaining C. albicans (ATCC 90028); black bars show remaining C. auris (CDC 384).

CCCCCCCCCCCCNCCC[C@@H](C)[C@H]1CC[C@H]2[C@@H]3[C@H](OCCCN)C[C@@H]4C[C@H](OCCCN)CC[C@]4(C)[C@H]3C[C@H](OCCCN)[C@]12C.Cl.Cl.Cl.Cl [CSA-131]
Time for inocula of just over 106 CFU/mL to be reduced to the detection limit ([1]; CSA-131 100 μg/mL alone): ≤ 15 min | Time for inocula of just over 106 CFU/mL to be reduced to the detection limit ([1]; CSA-131 100 μg/mL with pluronic (4%)): ≤ 15 min | MIC (C. auris CDC 384): 0.5 µg/mL | MIC (C. auris CDC 387): 0.5 µg/mL | MIC (C. auris CDC 382): 0.5 µg/mL | MIC (C. auris CDC 389): 0.5 µg/mL | MBEC (C. auris CDC 387 biofilm): 64 µg/mL | MBEC (C. auris CDC 382 biofilm): 82 µg/mL | MBEC (C. auris CDC 389 biofilm): 48 µg/mL | MBEC (C. auris CDC 384 biofilm): 48 µg/mL | MIC (P. aeruginosa ATCC 47085): 2 µg/mL | Difference in kinetic activity of the ceragenin alone and with pluronic (S. aureus): no significant differences | MBEC [2]: 100 µg/mL | MBEC [3]: 100 µg/mL | Decrease of fungal counts in treated explants vs control explants ([4]; CSA-131 alone): up to 99% | Decrease of fungal counts in treated explants vs control explants ([4]; CSA-131 alone, p<0.05 vs controls): one and a half to two | Decrease of fungal counts in treated explants vs control explants ([4]; CSA-131 with pluronic 4%): up to 99% | Decrease of fungal counts in treated explants vs control explants ([4]; CSA-131 with pluronic 4%, p<0.05 vs controls): one and a half to two | Decrease of fungal counts in treated explants vs control explants ([4]; CSA-131 with pluronic 5%): up to 99% | Decrease of fungal counts in treated explants vs control explants ([4]; CSA-131 with pluronic 5%, p<0.05 vs controls): one and a half to two
